Data on 1 compound can be found in patent US20090178149A1, “Polyamine Sensors and Methods of Using the Same” (priority 2005, published 2009).

The experiment deals with FLIP-AF1 biosensor (AF1 protein fused to CFP and YFP Venus) (Agrobacterium fabrum, UniProt A9CK51). The note with it: excitation 433 nm, emission 485/528 nm; 20 mM sodium phosphate buffer, pH 7.0.
Sequence of FLIP-AF1 biosensor (AF1 protein fused to CFP and YFP Venus) (A9CK51 27-365): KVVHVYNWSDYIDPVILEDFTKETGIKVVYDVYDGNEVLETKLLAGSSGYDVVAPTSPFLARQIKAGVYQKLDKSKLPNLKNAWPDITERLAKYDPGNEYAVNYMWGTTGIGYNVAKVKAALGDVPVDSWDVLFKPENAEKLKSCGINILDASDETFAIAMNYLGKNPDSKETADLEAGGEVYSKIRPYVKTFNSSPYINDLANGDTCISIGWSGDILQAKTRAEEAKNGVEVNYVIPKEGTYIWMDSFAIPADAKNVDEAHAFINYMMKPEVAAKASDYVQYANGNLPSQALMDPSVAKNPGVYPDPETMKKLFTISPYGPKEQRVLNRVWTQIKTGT

Method: A DNA fragment encoding the mature AF1 protein was fused to CFP and the YFP Venus sequence at the N- and C-termini, respectively. Emission spectra and substrate titration curves were obtained by using monochromator microplate reader Safire (Tecan, Austria). Excitation filter was 433/−12 nm, emission filters for CFP and YFP emission were 485/−12, 528 nm/12 nm, respectively. All analyses were done in 20 mM sodium phosphate buffer, pH 7.0.
The FLIP-AF1 biosensor (see SEQ ID Nos. 3 and 4) was titrated against various putrescine concentrations.

As for `NCCCCN` [putrescine, 1,4-diaminobutane], the “change in CFP/YFP emission (YFP/CFP ratio) on addition of putrescine” value is given as “decrease in the YFP/CFP ratio”.
